Laboratory results published in US12178210B2, “Insect attractant and killing system” (priority 2020, dated 2024).
Like-named read-outs stand apart in the source and are kept apart here.

Conditions: 40° C., 15 g, UV8 membrane, 1.6 mm orifice
Description: All prototype lure devices (i.e., the attractant receptacle and permeable membrane with enclosed volatile insect attractant) were constructed using polypropylene/calcium carbonate film (UV8) for the permeable membrane and Scotchpak™ (3M) polyester laminate film for the impermeable barrier material. Each lure device measured approximately 11.5 cm×5.5 cm with a 1.6 mm ( 1/16 in) diameter spherical punch in the impermeable layer exposing the membrane and an ˜8 mm ( 5/16 in) diameter heat seal around the circumference of the punch (referred to as a ring seal). […] Prior to being deployed the lures were weighed on an analytical balance (Sartorius, Universal; resolution of 0.01 g). Prototype lures were attached to a cord that ran the length of ventilated laboratory fume hood, with 5-8 cm (2-3 in) separating each lure in an open, ventilated room at the indicated temperature (18-20° C. or 39-41° C.). Every 2-3 days the lures were removed from the cord and weighed on the same scale. Lure weight was recorded and the weight loss (g/day) was calculated. In addition to prototype lures, two controls were included in the study consisting of a current Suterra lure product (WHF lure) and a competitor product (Comp. Prod. 1).

**Q.** With `N.NC(=O)O` [CM-NR, Ammonium carbamate] as the molecule, how does the “Attractant Release Rate (5-day average per time point)” value (day 5) read?
**A.** 338.4 mg/day

**Q.** What about the “Attractant Release Rate (5-day average per time point)” value (day 10) of the same molecule?
**A.** 346.8 mg/day

**Q.** What about the “Attractant Release Rate (5-day average per time point)” value (day 15) of the same molecule?
**A.** 370.0 mg/day

**Q.** What about the “Attractant Release Rate (5-day average per time point)” value (day 20) of the same molecule?
**A.** 413.7 mg/day

**Q.** What about the “Attractant Release Rate (5-day average per time point)” value (day 25) of the same molecule?
**A.** 440.0 mg/day

**Q.** And the “Attractant Release Rate (5-day average per time point)” value (day 30)?
**A.** 429.7 mg/day

**Q.** And the “Attractant Release Rate (5-day average per time point)” value (day 35)?
**A.** 408.5 mg/day

**Q.** What about the “Attractant Release Rate (5-day average per time point)” value (day 40) of the same molecule?
**A.** 193.2 mg/day

**Q.** What about the “Attractant Release Rate (5-day average per time point)” value (day 45) of the same molecule?
**A.** 0.0 mg/day

**Q.** What about the “Attractant Release Rate (5-day average per time point)” value (day 49) of the same molecule?
**A.** 0.0 mg/day

**Q.** And the “Attractant Release Rate (5-day average per time point)” value (day 55)?
**A.** 0.0 mg/day
